Laboratory results as given in patent US20090022803A1, “Oral Formulations For Delivery of Catecholic Butanes Including Ndga Compounds” (priority 2005, published 2009).
Where two headings read alike, the source gives them in different places.

Type: physicochemical
Method: A 10 mL solution of M4N at a concentration of about 10 mg/mL in 40% BP-β-CD was made as follows. About 10 mL of the 40% HP-β-CD solution were added to a glass beaker containing a stir bar. The beaker was placed on a magnetic plate and the stir bar was set to stir at medium speed. About […] of M4N were slowly added to the 40% HP-β-CD in the center of the beaker with the aid of a spatula. The M4N/40% HP-β-CD mixture was stirred for 2 hr or until all M4N was uniformly suspended without any clumps being present. The M4N/40% HP-β-CD mixture was optionally heated at 80° C. for about 30 min. (or longer if a larger volume of solution was desired, for example, 1 hr at 80° C. for 100 mL of the M4N/HP-β-CD mixture), or longer as needed to ensure complete dissolution of M4N. […] The final M4N/40% HP-β-CD solution was stored at room temperature and was kept protected from light. This process may be scaled up or down to obtain the requisite volume or concentration of M4N. Formulations containing M4N in other cyclodextrin solutions may be similarly made, such as, for example, by substituting HP-β-CD in the process described above with other cyclodextrins. […]
A 10 mL solution of M4N at a concentration of about 10 mg/mL in 50% HP-β-CD/0.5% HPMC was made as follows. About 10 mL of the 50% HP-β-CD/0.5% HPMC solution were added to a glass beaker containing a stir bar. The beaker was placed on a magnetic plate and the stir bar was set to stir at medium speed. About 100 mg of M4N were slowly added to the 50% HP-β-CD/0.5% HPMC in the center of the beaker with the aid of a spatula. The M4N/50% HP-β-CD/0.5% HPMC mixture was stirred for 24 hr or until all M4N was uniformly suspended without any clumps being present. The M4N/50% HP-β-CD/0.5% HPMC mixture was heated at about 90° C. for about 30 min. (or longer if a larger volume of solution was desired, for example, 1 hr at 90° C. for 500 mL of the M4N/50% HP-β-CD/0.5% HPMC mixture), or longer as needed to ensure complete dissolution of M4N. […] The final M4N/50% HP-β-CD/0.5% HPMC solution was stored at room temperature and was kept protected from light.
A 10 mL solution of M4N at a concentration of about 20 mg/mL in 5% EC (w/v) (the “EC formulation”) was made as follows. About 10 mL of 5% EC formulation, made as described above, were added to a glass beaker containing a stir bar. The beaker was placed on a magnetic plate and the stir bar was set to stir at medium speed, and covered with a round Teflon® cover. About 200 mg of M4N were slowly added to the 5% EC formulation in the center of the beaker with the aid of a spatula to prevent M4N from sticking to the beaker wall. The M4N/EC mixture was stirred for 2 hr or until all M4N had dissolved or was uniformly suspended without any clumps being present. The M4N/EC mixture was heated at about 60° C. for about 30 min. (or longer if a larger volume of solution was desired, for example, 1 hr at 60° C. for 500 mL of the M4N/EC mixture), or longer as needed to ensure complete dissolution of M4N. […] The final M4N/EC solution was stored at room temperature and was kept protected from light.
A 10 mL solution of M4N at a concentration of about 50 mg/mL in sesame oil was made as follows. About 10 mL of sesame oil were added to a glass beaker containing a stir bar. The beaker was placed on a magnetic plate and the stir bar was set to stir at medium speed. About 500 mg of M4N were slowly added to the sesame oil in the center of the beaker with the aid of a spatula to prevent M4N from sticking to the beaker wall. The M4N/sesame oil mixture was stirred for about 2 hr or until all M4N had dissolved or was uniformly suspended without any clump being present. The M4N/sesame oil mixture was heated at about 60° C. for about 30 min. (or longer if a larger volume of solution was desired, for example, 1 hr at 60° C. for 500 mL of the M4N/sesame oil mixture), or longer as need to ensure complete dissolution of M4N. […]

COc1ccc(C[C@@H](C)[C@@H](C)Cc2ccc(OC)c(OC)c2)cc1OC [Formulation M4N, meso-1,4-bis(3,4-dimethoxyphenyl)-2,3-dimethylbutane]
waxy: Dissolution After Cool-Down (M4N 100 mg/g in 50% Soybean Oil, 50% Beeswax (w/w), cell wraps: waxy solid) | Dissolution After Cool-Down (M4N 200 mg/g in 75% Soybean Oil, 25% Beeswax (w/w), cell wraps: waxy solid) | Dissolution After Cool-Down (M4N 200 mg/g in 90% Olive Oil, 10% Beeswax (w/w), cell wraps: waxy solid) | Dissolution After Cool-Down (M4N 200 mg/g in 90% Soybean Oil, 10% Beeswax (w/w), cell wraps: waxy solid) | Dissolution After Cool-Down (M4N 200 mg/g in 95% Olive Oil, 5% Beeswax (w/w), cell wraps: waxy solid) | Dissolution After Cool-Down (M4N 200 mg/g in 95% Soybean Oil, 5% Beeswax (w/w), cell wraps: waxy solid)
N: Dissolution After Cool-Down (M4N 50 mg/mL in Soybean Oil) | Dissolution After Cool-Down (M4N 52 mg/mL in 40% Peppermint Oil, 40% PEG 400, 20% Glycerol) | Dissolution After Cool-Down (M4N 59 mg/mL in 45% Peppermint Oil, 45% PEG 400, 10% Glycerol) | Dissolution After Cool-Down (M4N 60 mg/mL in 60% Peppermint Oil, 40% PEG 400) | Dissolution After Cool-Down (M4N 60 mg/mL in 80% Olive Oil, 20% Soybean Oil) | Dissolution After Cool-Down (M4N 60 mg/mL in 85% Sesame Oil, 15% Tween ® 20) | Dissolution After Rotation (M4N 100 mg/mL in 2.3% HPMC) | Dissolution After Cool-Down (M4N 100 mg/mL in 5% EC in EtOH) | Dissolution After Rotation (M4N 100 mg/mL in 5% EC in EtOH) | Dissolution After Rotation (M4N 100 mg/mL in 15% α-CD) | Dissolution After Rotation (M4N 100 mg/mL in 30% HP-β-CD) | Dissolution After Rotation (M4N 100 mg/mL in 40% HP-β-CD) | Dissolution After Rotation (M4N 100 mg/mL in 50% HP-β-CD) | Dissolution After Cool-Down (M4N 100 mg/mL in 50% Peppermint Oil, 50% PEG 400) | Dissolution After Cool-Down (M4N 100 mg/mL in Corn Oil) | Dissolution After Cool-Down (M4N 100 mg/mL in Mineral Oil) | Dissolution After Cool-Down (M4N 125 mg/mL in 50% Peppermint Oil, 50% PEG 300) | Dissolution After Cool-Down (M4N 125 mg/mL in 50% Peppermint Oil, 50% PEG 400) | Dissolution After Cool-Down (M4N 125 mg/mL in 50% Peppermint Oil, 50% Tween ® 20) | Dissolution After Cool-Down (M4N 200 mg/mL in Mineral Oil) | Dissolution After Cool-Down (PEG 400 100%, M4N 100 mg/mL, after heating at 60° C.)
Creamy: Dissolution After Cool-Down (M4N 60 mg/mL in 0.4% (v/v) Cinnamaldehyde, 5% (w/v) Beeswax, 94.5% (v/v) Olive Oil, cell wraps: Creamy solid) | Dissolution After Cool-Down (M4N 100 mg/mL in Camillia Oil, cell wraps: Creamy solid) | Dissolution After Cool-Down (M4N 100 mg/mL in Eugenol, Beeswax, Olive Oil, 0.5% (v/v) Eugenol, cell wraps: Creamy solid)
Y: Dissolution After Cool-Down (M4N 50 mg/mL in Corn Oil) | Dissolution After Cool-Down (M4N 50 mg/mL in Mineral Oil) | Dissolution After Cool-Down (M4N 50 mg/mL in Sesame Oil) | Dissolution After Cool-Down (M4N 60 mg/mL in 33% Peppermint Oil, 33% Tween ® 20, 33% PEG 400) | Dissolution After Cool-Down (M4N 60 mg/mL in 50% Peppermint Oil, 50% PEG 300) | Dissolution After Cool-Down (M4N 60 mg/mL in 50% Peppermint Oil, 50% PEG 400) | Dissolution After Cool-Down (M4N 60 mg/mL in 50% Peppermint Oil, 50% Sesame Oil) | Dissolution After Cool-Down (M4N 60 mg/mL in 50% Peppermint Oil, 50% Tween ® 20) | Dissolution After Cool-Down (M4N 60 mg/mL in 60% Peppermint Oil, 40% PEG 300) | Dissolution After Cool-Down (M4N 60 mg/mL in Corn Oil) | Dissolution After Cool-Down (M4N 60 mg/mL in Peppermint Oil) | Dissolution After Cool-Down (M4N 100 mg/mL in Peppermint Oil) | Dissolution After Cool-Down (M4N 125 mg/mL in Peppermint Oil) | Dissolution After Cool-Down (PEG 300 100%, M4N 25 mg/mL, after heating at 50° C.) | Dissolution After Cool-Down (PEG 400 100%, M4N 25 mg/mL, after heating at 50° C.) | Dissolution After Cool-Down (PEG 400 100%, M4N 30 mg/mL, after heating at 50° C.) | Dissolution After Cool-Down (PEG 400 100%, M4N 40 mg/mL, after heating at 50° C.) | Dissolution After Cool-Down (PEG 400 100%, M4N 50 mg/mL, after heating at 60° C.) | Dissolution After Cool-Down (PEG 400 mono-laurate 100%, M4N 20 mg/mL, after heating at 50° C.) | Dissolution After Cool-Down (PEG 400 mono-laurate 100%, M4N 50 mg/mL, after heating at 50° C.) | Dissolution After Cool-Down (Propylene Glycol 100% (w/v), M4N 1 mg/mL, after heating at 55° C.) | Dissolution After Cool-Down (Propylene Glycol 100% (w/v), M4N 10 mg/mL, after heating at 55° C.) | Dissolution After Cool-Down (Propylene Glycol 100% (w/v), M4N 20 mg/mL, after heating at 55° C.)
powder: Dissolution After Rotation (M4N 150 mg/g in 84% HP-β-CD, 1% HPMC, Lyophilized) | Dissolution After Rotation (M4N 185 mg/g in 81.5% (w/w) HP-β-CD, Lyophilized)
N at 90°: Dissolution After Heating at X° C. (M4N 100 mg/mL in 15% α-CD, 90°) | Dissolution After Heating at X° C. (M4N 100 mg/mL in 30% HP-β-CD, 90°) | Dissolution After Heating at X° C. (M4N 100 mg/mL in 50% HP-β-CD, 90°)
Suspension: Dissolution After Rotation (M4N 60 mg/mL in 50% HP-β-CD, 0.5% CMC)
N at 80°: Dissolution After Heating at X° C. (M4N 100 mg/mL in 40% HP-β-CD, 80°)
